Laboratory results reported in ChEMBL document CHEMBL6177955, “Design, synthesis and biological evaluation of Golgi-targeting anion transporters as inducers of Golgiphagy and apoptosis in cancer cells” (Eur J Med Chem, 2025).
Activity calls are given as the source filed them. The calls are words filed in the database; no cut-off is given here.

Tests used:
[1] = tested on: Lipid bilayer; assay: Vesicular anionophoric activity in large unilamellar vesicle membrane derived from egg-yolk L-alpha-phosphatidylcholine assessed as induction of relative efflux of chloride ions measured up to 300 seconds by using chloride-selective electrode
[2] = tested on: Lipid bilayer; assay: Vesicular anionophoric activity in large unilamellar vesicle membrane derived from egg-yolk L-alpha-phosphatidylcholine assessed as induction of relative efflux of chloride ions in presence of lithium (Li+) measured up to 300 seconds by using chloride-selective electrode; conditions: time <= 300.0 sec
[3] = tested on: Lipid bilayer; assay: Vesicular anionophoric activity in large unilamellar vesicle membrane derived from egg-yolk L-alpha-phosphatidylcholine assessed as induction of relative efflux of chloride ions in presence of sodium (Na+) measured up to 300 seconds by using chloride-selective electrode; conditions: time <= 300.0 sec
[4] = tested on: Lipid bilayer; assay: Vesicular anionophoric activity in large unilamellar vesicle membrane derived from egg-yolk L-alpha-phosphatidylcholine assessed as induction of relative efflux of chloride ions in presence of potassium (K+) measured up to 300 seconds by using chloride-selective electrode; conditions: time <= 300.0 sec
[5] = tested on: Lipid bilayer; assay: Vesicular anionophoric activity in large unilamellar vesicle membrane derived from egg-yolk L-alpha-phosphatidylcholine assessed as induction of relative efflux of chloride ions in presence of rubidium (Rb+) measured up to 300 seconds by using chloride-selective electrode; conditions: time <= 300.0 sec
[6] = tested on: Lipid bilayer; assay: Vesicular anionophoric activity in large unilamellar vesicle membrane derived from egg-yolk L-alpha-phosphatidylcholine assessed as induction of relative efflux of chloride ions in presence of cesium (Cs+) measured up to 300 seconds by using chloride-selective electrode; conditions: time <= 300.0 sec
[7] = tested on: Lipid bilayer; assay: Vesicular anionophoric activity in Bulky nitrobenzene membrane assessed as induction of relative efflux of chloride ions measured up to 100 hrs by using chloride-selective electrode
[8] = tested on: A2780; assay: Antiproliferative activity against human A2780 cells by MTT assay; assay type: functional, cell-based
[9] = tested on: HepG2; assay: Antiproliferative activity against human HepG2 cells by MTT assay; assay type: functional, cell-based
[10] = tested on: MCF7; assay: Antiproliferative activity against human MCF7 cells by MTT assay; assay type: functional, cell-based
[11] = tested on: HT-29; assay: Antiproliferative activity against human HT-29 cells by MTT assay; assay type: functional, cell-based
[12] = tested on: HCT-8; assay: Antiproliferative activity against human HCT-8 cells by MTT assay; assay type: functional, cell-based
[13] = tested on: HepG2; assay: Induction of chloride ion influx in human HepG2 cells assessed as effect on lysosomal chloride anions at […] measured after 12 hrs incubation by chloride-sensitive dye MQAE-MP based CLSM imaging analysis; assay type: functional, cell-based
[14] = tested on: HepG2; assay: Induction of apoptosis in human HepG2 cells assessed as viable cells at 5 uM measured after 24 hrs incubation by Propidium iodide/Annexin V-FITC analysis (reference value: 90.2%); assay type: functional; conditions: read-out: Activity
[15] = tested on: HepG2; assay: Induction of apoptosis in human HepG2 cells assessed as early apoptotic cells at 5 uM measured after 24 hrs incubation by Propidium iodide/Annexin V-FITC analysis (reference value: 2.90%); assay type: functional
[16] = tested on: HepG2; assay: Induction of apoptosis in human HepG2 cells assessed as late apoptotic cells at 5 uM measured after 24 hrs incubation by Propidium iodide/Annexin V-FITC analysis (reference value: 5.71%); assay type: functional
[17] = tested on: HepG2; assay: Induction of apoptosis in human HepG2 cells assessed as necrotic cells at 5 uM measured after 24 hrs incubation by Propidium iodide/Annexin V-FITC analysis (reference value: 1.14%); assay type: functional
[18] = tested on: HepG2; assay: Disruption of homeostasis of chloride anions in golgi apparatus of human HepG2 cells assessed as increase in fluorescence intensity of 6-methoxy-1-(2-oxo-2-((4-sulfamoylphenyl)amino)ethyl)quinolin-1-ium Bromide measured after 12 hts by CLSM imaging analysis; assay type: functional, cell-based
[19] = tested on: HepG2; assay: Suppression of Golgi structural and functional protein expression in human HepG2 cells assessed as decrease in GM130 protein expression at 20 uM measured after 48 hrs incubation by Western blot analysis; assay type: cell-based
[20] = tested on: HepG2; assay: Suppression of Golgi structural and functional protein expression in human HepG2 cells assessed as decrease in GRASP55 protein expression at 20 uM measured after 48 hrs incubation by Western blot analysis; assay type: cell-based
[21] = tested on: HepG2; assay: Disruption of homeostasis of chloride anions in golgi apparatus of human HepG2 cells assessed as increase in fluorescence intensity of 6-methoxy-1-(2-oxo-2-((4-sulfamoylphenyl)amino)ethyl)quinolin-1-ium Bromide at 50 uM measured after 12 hts by CLSM imaging analysis; assay type: functional, cell-based
[22] = tested on: HepG2; assay: Suppression of Golgi structural and functional protein expression in human HepG2 cells assessed as decrease in GM130 protein expression at 5 to 20 uM measured after 48 hrs incubation by Western blot analysis; assay type: cell-based; conditions: dose 5-20 µM
[23] = tested on: HepG2; assay: Suppression of Golgi structural and functional protein expression in human HepG2 cells assessed as decrease in GRASP55 protein expression at 5 to 20 uM measured after 48 hrs incubation by Western blot analysis; assay type: cell-based; conditions: dose 5-20 µM

EC50 [1] | Activity [2] | Activity [3] | Activity [4] | Activity [5] | Activity [6] | IC50 [8] | IC50 [9] | IC50 [10] | IC50 [11] | IC50 [12] | Compound | Activity [7] | further results
> 10 mol% | Active | Active | Active | Active | Active | > 50 µM | 36.7 µM | 33 µM | 47.4 µM | 32.2 µM | Cc1ccc(Nc2c(NCCCCCC(=O)Nc3ccc(S(N)(=O)=O)cc3)c(=O)c2=O)cc1 | Active; Compound Exhibit Anion Transport Activity Most Probably Through Carrier Mechanism | –
– | – | – | – | – | – | – | – | – | – | – | COc1ccc2c(ccc[n+]2CC(=O)Nc2ccc(S(N)(=O)=O)cc2)c1 | – | Activity [13]: Active
– | – | – | – | – | – | 1.03 µM | 0.57 µM | 0.32 µM | 1.22 µM | 1.21 µM | COc1cccc2c1C(=O)c1c(O)c3c(c(O)c1C2=O)C[C@@](O)(C(=O)CO)C[C@@H]3O[C@H]1C[C@H](N)[C@H](O)[C@H](C)O1.Cl [DOXORUBICIN HYDROCHLORIDE] | – | viability at 5 µM [14]: 58.5%; Activity [15]: 16.8%; Activity [16]: 20.7%; Activity [17]: 3.96%
3.76 mol% | Active | Active | Active | Active | Active | > 50 µM | 33.6 µM | 30.1 µM | 42.1 µM | 36.5 µM | NS(=O)(=O)c1ccc(NC(=O)CCCCCNc2c(Nc3ccc(F)cc3)c(=O)c2=O)cc1 | Active; Compound Exhibit Anion Transport Activity Most Probably Through Carrier Mechanism | –
2.86 mol% | Active | Active | Active | Active | Active | > 50 µM | > 50 µM | > 50 µM | > 50 µM | > 50 µM | NS(=O)(=O)c1ccc(NC(=O)CCCCCNc2c(Nc3ccc([N+](=O)[O-])cc3)c(=O)c2=O)cc1 | Active; Compound Exhibit Anion Transport Activity Most Probably Through Carrier Mechanism | –
9.35 mol% | Active | Active | Active | Active | Active | 46.9 µM | 26.7 µM | 28.5 µM | 29.6 µM | 22.7 µM | NS(=O)(=O)c1ccc(NC(=O)CCCCCNc2c(Nc3ccccc3)c(=O)c2=O)cc1 | Active; Compound Exhibit Anion Transport Activity Most Probably Through Carrier Mechanism | EC50 [18]: 31.1 µM; Activity [19]: Active; Activity [20]: Active
2.93 mol% | Active | Active | Active | Active | Active | 21.1 µM | 27.1 µM | > 50 µM | 24.7 µM | 19.2 µM | NS(=O)(=O)c1ccc(NC(=O)CCCCCNc2c(Nc3ccc(C(F)(F)F)cc3)c(=O)c2=O)cc1 | Active; Compound Exhibit Anion Transport Activity Most Probably Through Carrier Mechanism | –
3.06 mol% | Active | Active | Active | Active | Active | 48.8 µM | 35.9 µM | 15.5 µM | 18.7 µM | 41 µM | NS(=O)(=O)c1ccc(NC(=O)CCCCCNc2c(Nc3ccc(Br)cc3)c(=O)c2=O)cc1 | Active; Compound Exhibit Anion Transport Activity Most Probably Through Carrier Mechanism | –
4.57 mol% | Active | Active | Active | Active | Active | > 50 µM | 38.1 µM | 37.1 µM | 45.1 µM | 31.8 µM | N#Cc1ccc(Nc2c(NCCCCCC(=O)Nc3ccc(S(N)(=O)=O)cc3)c(=O)c2=O)cc1 | Active; Compound Exhibit Anion Transport Activity Most Probably Through Carrier Mechanism | –
3.08 mol% | Active | Active | Active | Active | Active | > 50 µM | > 50 µM | > 50 µM | > 50 µM | > 50 µM | NS(=O)(=O)c1ccc(NC(=O)CCCCCNc2c(Nc3cc([N+](=O)[O-])cc([N+](=O)[O-])c3)c(=O)c2=O)cc1 | Active; Compound Exhibit Anion Transport Activity Most Probably Through Carrier Mechanism | –
3.44 mol% | Active | Active | Active | Active | Active | > 50 µM | 20.6 µM | > 50 µM | 40.9 µM | 39.1 µM | NS(=O)(=O)c1ccc(NC(=O)CCCCCNc2c(Nc3cc(Cl)cc(Cl)c3)c(=O)c2=O)cc1 | Active; Compound Exhibit Anion Transport Activity Most Probably Through Carrier Mechanism | –
5.78 mol% | Active | Active | Active | Active | Active | > 50 µM | 31.9 µM | 23.6 µM | 33.8 µM | 25.6 µM | NS(=O)(=O)c1ccc(NC(=O)CCCCCNc2c(Nc3ccc(Cl)cc3)c(=O)c2=O)cc1 | Active; Compound Exhibit Anion Transport Activity Most Probably Through Carrier Mechanism | –
> 10 mol% | Active | Active | Active | Active | Active | > 50 µM | 41.9 µM | 39.7 µM | 49.5 µM | 44.7 µM | COc1ccc(Nc2c(NCCCCCC(=O)Nc3ccc(S(N)(=O)=O)cc3)c(=O)c2=O)cc1 | Active; Compound Exhibit Anion Transport Activity Most Probably Through Carrier Mechanism | Activity [21]: inactive; Activity [22]: inactive; Activity [23]: Active
